Test results taken from patent US11022604B2, “Dock derived compound against laminin receptor (37 LR) and uses thereof” (Purdue Research Foundation, priority 2017, dated 2021).

What was measured:
Type in all cases: cell-based
[1] = test system: endothelial vessel formation in vitro (tube formation); assay: Angiogenesis tube formation assay (derivatives); details: 30 uM, 7 hour incubation
Protocol: FIGS. 28A-28F Representative images of tube formation. 7 hour incubation period with respective compounds: FIG. 28A, DMSO; FIG. 28B DBGII-3, 30 uM; FIG. 28C, EGCG, 30 uM; FIG. 28 D, DBGII-5, 30 uM, FIG. 28E, C3, 30 uM; FIG. 28 F, DBGII-9, 30 uM.
An angiogenesis tube formation assay was used to characterize the impact of compounds against endothelial vessel formation in vitro (i.e., tube formation).

[2] = test system: PC3 prostate cancer cell line; assay: Cell Titer Glo cell viability assay
Description: In this series of cell viability experiments, we used the highly sensitive Cell Titer Glo reagents from Promega in PC3 prostate cancer cell line. We compared the parental compound C3 effect on reducing cell viability with the best derivative compound, DBG-02-09.

[3] = test system: PC3 prostate cancer cell lines; assay: CCK8 cell viability screen of derivatives; details: PC3, CCK8, day three
Protocol: FIGS. 22A-22B. Screen of all the derivatives made in Example 17 in CCK8 cell viability assay with PC3 prostate cancer cell lines at day 3 (FIG. 22A) and day 5 (FIG. 22B).
FIG. 23. All derivatives made in Example 17 are tested for cell inhibition percentage at day 3.
CCK8 cell viability assay with PC3 prostate cancer cell lines is conducted and cell viability on day 3, day 5 are examined, see FIGS. 22A-22B. Additionally, the cell inhibition percentage for compounds DBG1-191, 1-200, 02-09, 2-14, among others were further characterized in CCK8 assay against PC3.

PC-3 cells = assay: PC-3 cell viability response to recombinant PEDF (CCK-8); details: 48 hours
Protocol: FIG. 13. PC-3 Cell Viability Response To Recombinant PEDF PC-3 cells were treated with 0.1 to 0.6 μM rPEDF for 48 hours and cell viability was measured using the CCK-8 assay (n=3, mean±SEM). A one-way ANOVA was used for statistical analysis (n.s. p=0.11) however the linear trend was significant (post test for linear trend, p<0.05).
Recombinant PEDF (BioProductsMD) was resuspended in PEDF Buffer (0.2 M NaCl, 20 mM sodium phosphate, and 1 mM DTT; ph 6.4). 1,500 cells per well were seeded in a clear 96-well plate in RPMI-1640 with 1% anti-anti and 10% FBS and allowed to grow overnight. A 0-hour recording was taken using CCK-8 and compared to a 48-hour reading after incubating PC-3 cells with recombinant PEDF (0.1 μM to […]) in RPMI-1640 with 1% anti-anti and 1% FBS. […] The adenovirus was administered intravenously (2×10^8 pfu/i.v.) 3 days following subcutaneous TC2-Ras cell implantation (10^4 or 10^5, without mAR (−mAR control) or with mAR (+mAR) in C57/BL6 male mice. Mice were injected intraperitoneally with 150 mg/kg Luciferin (10-20 min incubation) followed by a 5 min signal acquisition using an IVIS 100 imager (Caliper/PerkinElmer, Downers Grove, Ill.) and analyzed with LivingImage 3.1 software (Caliper/PerkinElmer), with signals reported as photons per second per […] per steridian (p/sec/cm^2/sr). Statistics. Statistical analysis was performed using GraphPad Prism 6. […]

With `O=C(c1ccncc1Oc1ccccc1)N1CCN(C2c3ccccc3-c3ccccc32)CC1` [DBGII-03] the tube formation [1] was “Thinning of tubes formed”.

`O=C(c1ccccc1)N1CCN(C2c3ccccc3-c3ccccc32)CC1` [DBGII-05] was tested, and the tube formation [1] was “Thinning of tubes formed”.

`CN(C)CCOc1ccccc1C(=O)N1CCN(C2c3ccccc3-c3ccccc32)CC1` [DBGII-09] was tested, and the IC50 ([2]; Homo sapiens, PC-3, PC3 cells) was 7.6 ± 0.52 µM, the “reduction of IC50 relative to parental compound C3” value ([2]; PC3 cells) was 2.2 fold and the “cell inhibition percentage (rank among derivatives)” value [3] was “highest inhibition”. For the same molecule, the tube formation [1] was “Thinning of tubes formed”.

B1: recombinant PEDF: Recombinant pigment epithelium-derived factor (BioProductsMD), secreted glycoprotein (protein, UniProt P36955 20-418, looked up)
Pigment epithelium-derived …: QNPASPPEEGSPDPDSTGALVEEEDPFFKVPVNKLAAAVSNFGYDLYRVRSSTSPTTNVLLSPLSVATALSALSLGAEQRTESIIHRALYYDLISSPDIHGTYKELLDTVTAPQKNLKSASRIVFEKKLRIKSSFVAPLEKSYGTRPRVLTGNPRLDLQEINNWVQAQMKGKLARSTKEIPDEISILLLGVAHFKGQWVTKFDSRKTSLEDFYLDEERTVRVPMMSDPKAVLRYGLDSDLSCKIAQLPLTGSMSIIFFLPLKVTQNLTLIEESLTSEFIHDIDRELKTVQAVLTVPKLKLSYEGEVTKSLQEMKLQSLFDSPDFSKITGKPIKLTQVEHRAGFEWNEDGAGTTPSPGLQPAHLTFPLDYHLNQPFIFVLRDTDTGALLFIGKILDPRGP
In the case of B1, the “dose/response relationship for survival of PC-3 cells” value (PC-3 cells) is reported as “unable to demonstrate a significant dose/response relationship”.
